Assay results reported in PubChem BioAssay (NCI).
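Interpolation was linear, between the two tested concentrations surrounding the appropriate level; five concentrations were tested over 48 hours in 96-well plates. GI50 marks 50% less growth. Definition used: TGI = concentration required for complete inhibition of growth.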

Assays:
Test in all cases: DTP human tumour cell line panel, 48 h
SF-539 CNS = system: SF-539 CNS
M14 melanoma = system: M14 melanoma
NCI-H460 lung = system: NCI-H460 lung
UACC-62 melanoma = system: UACC-62 melanoma
EKVX NSCLC = system: EKVX NSCLC
SW-620 colon = system: SW-620 colon
RPMI-8226 leukemia = system: RPMI-8226 leukemia
K-562 leukemia = system: K-562 leukemia
DU-145 prostate = system: DU-145 prostate
MCF7 breast = system: MCF7 breast

SMILES | TGI (SF-539 CNS) [µM] | TGI (M14 melanoma) [µM] | TGI (NCI-H460 lung) [µM] | TGI (UACC-62 melanoma) [µM] | TGI (EKVX NSCLC) [µM] | TGI (SW-620 colon) [µM] | TGI (RPMI-8226 leukemia) [µM] | TGI (K-562 leukemia) [µM] | GI50 (SF-539 CNS) [µM] | GI50 (M14 melanoma) [µM] | GI50 (NCI-H460 lung) [µM] | GI50 (UACC-62 melanoma) [µM] | GI50 (EKVX NSCLC) [µM] | GI50 (SW-620 colon) [µM] | GI50 (DU-145 prostate) [µM] | TGI (DU-145 prostate) [µM] | GI50 (RPMI-8226 leukemia) [µM] | GI50 (MCF7 breast) [µM] | TGI (MCF7 breast) [µM] | GI50 (K-562 leukemia) [µM]
COc1ccc(C(=O)O/N=C2\CCCC\C2=C/c2ccccc2)cc1 | 81.2 | > 100 | > 100 | > 100 | > 100 | > 100 | – | – | – | – | – | – | – | – | – | – | – | – | – | –
CC(=O)NNc1nc(C)c(C(/C=C/c2ccc(/C=C/C(=N\NC(=O)c3ccncc3)c3sc(NNC(C)=O)nc3C)cc2)=N/NC(=O)c2ccncc2)s1 | > 100 | > 100 | > 100 | > 100 | > 100 | > 100 | > 100 | > 100 | – | – | – | – | – | – | – | – | – | – | – | –
O=C(CC1Sc2ccccc2NC1=O)Nc1cccc(Cl)c1 (configuration not stated) | > 100 | > 100 | > 100 | > 100 | 84.8 | > 100 | 69.6 | > 100 | – | – | – | – | – | – | – | – | – | – | – | –
c1ccc([CH2][Sn]([CH2]c2ccccc2)([S]c2cccc3cccnc23)[S]c2cccc3cccnc23)cc1 | 0.662 | 0.511 | 1.01 | 0.496 | 2.03 | 0.813 | – | – | 0.26 | 0.221 | 0.273 | 0.211 | 0.666 | 0.21 | – | – | – | – | – | –
COC(=O)C1=Cc2cc3c(cc2[C@H](c2ccc4c(c2)OCO4)C1C(=O)OC)OCO3 (some centres not stated) | > 100 | > 100 | > 100 | > 100 | > 100 | > 100 | > 100 | > 100 | – | – | – | – | – | – | – | – | – | – | – | –
COc1ccc(C(=O)CC2(O)C(=O)Nc3c(Cl)ccc(Cl)c32)cc1 (configuration not stated) | 6.96 | > 22.2 | 40.4 | > 100 | – | > 100 | 15.5 | > 100 | 1.64 | 0.56 | 0.97 | 0.791 | – | 0.503 | 3.44 | > 37.6 | 2.64 | 0.64 | > 100 | 0.403
Cc1c(C(=O)/C=C/c2ccco2)[n+](=O)c2ccccc2n1[O-] | > 100 | > 100 | > 100 | > 100 | > 100 | > 100 | > 100 | > 100 | – | – | – | – | – | – | – | – | – | – | – | –
O=c1ccc2nc(-c3ccccc3)nn(-c3ccccc3)c-2c1 | 3.76 | 3.27 | 18.3 | 4.13 | – | 3.53 | 5.32 | 1.12 | 1.92 | 1.67 | 6.63 | 1.84 | – | 1.65 | 1.92 | 3.37 | 2.02 | 1.11 | 2.74 | 0.353
CC(C)(O)Cn1c(=O)c(Oc2ccc(F)cc2F)cc2cnc(NC3CCOCC3)nc21 | > 25 | > 25 | > 25 | > 25 | – | > 25 | > 25 | > 25 | > 25 | > 25 | > 25 | > 25 | – | > 25 | > 25 | > 25 | > 25 | > 25 | > 25 | > 25
O=C1CCCC1C(=O)Nc1ccc2ccccc2c1 (configuration not stated) | – | > 100 | > 100 | > 100 | > 100 | > 100 | > 100 | > 100 | – | – | – | – | – | – | – | > 100 | – | – | > 100 | –
COC(=O)C1=C(O)C(O)=C(C(=O)OC)CC1 | > 100 | > 100 | > 100 | > 100 | > 100 | > 100 | > 100 | > 100 | – | – | – | – | – | – | – | – | – | – | – | –
CN(C)C1(C#N)CCC2(CC1)OCCO2 | > 100 | > 100 | > 100 | > 100 | > 100 | > 100 | > 100 | > 100 | – | – | – | – | – | – | – | – | – | – | – | –
COC(=O)C1=CC(=O)C(C(=O)Nc2ccc(OC)cc2)C(c2ccccc2)O1 (configuration not stated) | 40.3 | 98.7 | > 100 | > 89.6 | > 100 | > 100 | > 100 | > 100 | – | – | – | – | – | – | – | – | – | – | – | –
COc1cc([C@@H]2c3cc4c(cc3[C@H](OC3OC5COC(c6ccccc6)OC5C(O)C3O)[C@H]3COC(=O)[C@H]23)OCO4)cc(OC)c1OC (some centres not stated) | – | 17.9 | 2.92 | 22.1 | 24.2 | 10.8 | 1 | > 100 | – | 0.351 | 0.282 | 0.515 | 0.426 | 0.396 | 0.324 | 2.04 | 0.263 | 0.279 | 4.2 | 0.359
CN1CCC(O)C(CNC23CC4CC(CC(C4)C2)C3)C1 (configuration not stated) | > 100 | – | > 100 | > 100 | > 100 | > 100 | – | > 100 | – | – | – | – | – | – | – | – | – | – | – | –
CCC12C=CCN3CC[C@]4(C(=C(C(=O)OC)[C@@H]1Nc1ncnc5c1ncn5C1OC(COC(C)=O)C(OC(C)=O)C1OC(C)=O)Nc1ccccc14)C32 (some centres not stated) | 4.4 | 7.03 | 5.99 | 10.3 | 16.2 | 5.31 | 18.9 | 17 | – | – | – | – | – | – | – | – | – | – | – | –
CCS[C@H]1NC(=O)C1[C@H](C)O[Si](C)(C)C(C)(C)C (some centres not stated) | > 100 | – | > 100 | > 100 | > 100 | > 100 | > 100 | > 100 | – | – | – | – | – | – | – | – | – | – | – | –
Cc1ccc(S(=O)(=O)NCCCN(CCCNS(=O)(=O)c2ccc(C)cc2)S(=O)(=O)c2ccc(C)cc2)cc1 | > 100 | > 100 | > 100 | > 100 | – | > 100 | > 100 | > 100 | – | – | – | – | – | – | – | – | – | – | – | –
CC(C)c1ccc2c(c1)CCC1C(C)(C)[C@@H](O)CC[C@]21C (some centres not stated) | 65.1 | 72.4 | 41.4 | > 100 | – | – | 52 | > 100 | – | – | – | – | – | – | – | – | – | – | – | –
CC(C)NC(=O)OCc1nnn2c1C(OC(=O)NC(C)C)CC2 (configuration not stated) | > 100 | > 100 | > 100 | > 100 | > 100 | > 100 | > 100 | > 100 | – | – | – | – | – | – | – | – | – | – | – | –
